In brackets after ≈: the same amount, converted by molar mass. Several values for one entry are separate records, joined by “and”; a condition that tells them apart may be missing. Identical values can stand only once. Like-named read-outs stand apart in the source and are kept apart here.
Experiments:
[1] = Solid state stability under ambient conditions; assay type: physicochemical
Solubility = assay type: physicochemical
[2] = system: PfGlyRS cKD P. falciparum line; test: microbe, parasite or virus in culture; assay type: cell-based, Plasmodium falciparum; conditions: for Growth: PfGlyRS K/D; for IC50: PfGlyRS line, individual repeats
Excerpt: (§1) Conditional knockdown (cKD) P. falciparum lines were generated for the cytosolic AsnRS (PF3D7_0211800), cytosolic AlaRS (PF3D7_1367700), cytosolic GlyRS (GlyRS; PF3D7_1420400), PfNT4 (PF3D7_0103200), P. falciparum glutamate dehydrogenase 3 (GDH3; PF3D7_0802000), and P. falciparum carbonic anhydrase (CA, PF3D7_1140000) by fusing the coding sequences and non-coding RNA aptamer sequences in the 3’-UTR, permitting translation regulation using the TetR-DOZI system[59],[60]. Gene editing was achieved by CRISPR/SpCas9 using the linear pSN054 vector that contains cloning sites for the left homology region (LHR) and the right homology region (RHR) as well a target-specific guide RNA under control of the T7 promoter. Cloning into the pSN054 donor vector was carried out following described procedures[59],[60]. The vector includes V5-2xHA epitope tags, a 10x tandem array of TetR aptamers upstream of an Hsp86 3’UTR, and a multicistronic cassette for expression of TetR-DOZI (translation regulation), blasticidin S-deaminase (selection marker) and a Renilla luciferase (RLuc) reporter. All primer and synthetic fragment sequences that were generated using the BioXP™ system and IDT gBlocks™ are included in Supplementary Table 9. The final constructs were sequence-verified and further confirmed by restriction digests.
(§2) Transfection into Cas9- and T7 RNA polymerase-expressing NF54 parasites was carried out by pre-loading red blood cells (RBCs) with the donor vector[61]. […] Cultures were monitored by Giemsa smears and RLuc measurements.
(§3) DMSO- and dihydroartemisinin-treatment (0.5 µM) served as reference controls.

[3] = system: PfGDH3 cKD P. falciparum line; test: microbe, parasite or virus in culture; assay type: cell-based, Plasmodium falciparum; conditions: for Growth: PfGDH K/D
Excerpt: as §1, §2, §3

[4] = system: PfNT4 cKD P. falciparum line; test: microbe, parasite or virus in culture; assay type: cell-based, Plasmodium falciparum; conditions: for growth after 72 h exposure, normalised to no drug: PfNT4 K/D, replicates; for IC50: PfNT4 line, individual repeats
Excerpt: as §1, §2, §3

[5] = system: PfAsnRS cKD P. falciparum line; test: microbe, parasite or virus in culture; assay type: cell-based, Plasmodium falciparum; conditions: PfAsnRS K/D, 1 nM aTc, replicates
Excerpt: as §1, §2, §3

[6] = Plasmodium falciparum, 1 nM, […] aTc or no aTc
[7] = Plasmodium falciparum, 500 nM aTc

For `Nc1ncnc2cc(-c3cccc(S(N)(=O)=O)c3)sc12` [OSM-S-106], the “stability in the solid state” value [1] was “stable in the solid state”, the solubility (Solubility; pH 2, simulated gastric fluid) was 50 to 100 µg/mL (≈ 163 to 326 µM) and the solubility (Solubility; pH 6.5, aqueous buffer) was 12.5 to 25 µg/mL (≈ 40.8 to 81.6 µM). The Growth ([2]; 3.125 nM OSM-S-106, 500 nM aTc) was 112.465 and 111.772 and 85.4538, the Growth ([2]; 6.25 nM OSM-S-106, 500 nM aTc) was 122.27 and 121.35 and 91.2762 and the Growth ([2]; 12.5 nM OSM-S-106, 500 nM aTc) was 106.05 and 112.162 and 76.632. The Growth ([2]; 100 nM OSM-S-106, 500 nM aTc) was 9.878 and 6.142 and 8.685, the Growth ([2]; 200 nM OSM-S-106, 500 nM aTc) was 7.891 and 8.53 and 4.96 and the IC50 ([2]; 1 nM, […] aTc or no aTc) was 40.7 nM. For the same molecule, the IC50 ([2]; 500 nM aTc) was 37.2 nM, the IC50 [2, 6] was 39.5 nM and the IC50 [2, 7] was 39.3 nM. For the same molecule, the Growth ([3]; 3.125 nM OSM-S-106, 500 nM aTc) was 94.0541 and 124.457 and 123.311 and 110.909, the Growth ([3]; 3.125 nM OSM-S-106, no aTc) was 87.3995 and 105.933 and 109.078 and 106.271 and the Growth ([3]; 6.25 nM OSM-S-106, 500 nM aTc) was 100.123 and 114.751 and 110.911 and 107.384. The Growth ([3]; 6.25 nM OSM-S-106, no aTc) was 83.7383 and 126.64 and 124.278 and 107.945, the Growth ([3]; 12.5 nM OSM-S-106, 500 nM aTc) was 87.2036 and 124.904 and 116.677 and 110.631 and the Growth ([3]; 12.5 nM OSM-S-106, no aTc) was 66.2785 and 97.9464 and 116.025 and 105.41. The Growth ([3]; 200 nM OSM-S-106, 500 nM aTc) was 11.4175 and 15.1341 and 15.4371 and 10.7452, the Growth ([3]; 200 nM OSM-S-106, no aTc) was 9.827 and 15.4022 and 15.1307 and 8.291 and the IC50 ([3]; PfGDH3 line, 500 nM aTc, individual repeats) was 22.8 nM and 69.5 nM and 36.5 nM and 30.2 nM. For the same molecule, the IC50 ([3]; Plasmodium falciparum, read-out: Mean IC50 with 500 nM aTc, PfGDH3 line, 500 nM aTc) was 40 nM, the IC50 ([3]; Plasmodium falciparum, read-out: Mean IC50 with low (1 or […])/ no aTc, PfGDH3 knockdown, no aTc) was 46 nM and the “growth after 72 h exposure, normalised to no drug” value (“growth … normalised to no drug” for short) ([4]; 500 nM aTc, 0.488281 nM) was 115.319 and 105.291 and 111.528. For the same molecule, the “growth … normalised to no drug” value ([4]; 500 nM aTc, 0.976562 nM) was 113.41 and 102.567 and 108.441, the “growth … normalised to no drug” value ([4]; 500 nM aTc, 1.95312 nM) was 108.529 and 100.357 and 100.986 and the “growth … normalised to no drug” value ([4]; 500 nM aTc, 3.90625 nM) was 110.366 and 98.6162 and 100.564. For the same molecule, the “growth … normalised to no drug” value ([4]; 500 nM aTc, 7.8125 nM) was 101.389 and 100.305 and 97.246, the “growth … normalised to no drug” value ([4]; 500 nM aTc, 31.25 nM) was 11.2119 and 13.2391 and 14.7628 and the “growth … normalised to no drug” value ([4]; 500 nM aTc, 62.5 nM) was 1.785 and 2.763 and 1.994. For the same molecule, the “growth … normalised to no drug” value ([4]; 500 nM aTc, 125 nM) was 0.2373 and 0.4204 and 0.2459, the “growth … normalised to no drug” value ([4]; 500 nM aTc, 250 nM) was 0.2337 and 0.2689 and 0.2037 and the “growth … normalised to no drug” value ([4]; no aTc, 0.488281 nM) was 115.9 and 108.506 and 115.265. The “growth … normalised to no drug” value ([4]; no aTc, 0.976562 nM) was 107.637 and 104.459 and 111.884, the “growth … normalised to no drug” value ([4]; no aTc, 1.95312 nM) was 103.621 and 102.992 and 106.407 and the “growth … normalised to no drug” value ([4]; no aTc, 3.90625 nM) was 93.8123 and 99.6909 and 104.029. The “growth … normalised to no drug” value ([4]; no aTc, 7.8125 nM) was 30.4373 and 37.6726 and 51.4607, the “growth … normalised to no drug” value ([4]; no aTc, 31.25 nM) was 0.5987 and 0.9711 and 0.5614 and the “growth … normalised to no drug” value ([4]; no aTc, 62.5 nM) was 0.1353 and 0.2821 and 0.05072. For the same molecule, the “growth … normalised to no drug” value ([4]; no aTc, 125 nM) was 0.1322 and 0.3476 and 0.0472, the “growth … normalised to no drug” value ([4]; no aTc, 250 nM) was 0.1415 and 0.3214 and 0.1916 and the IC50 ([4]; 500 nM aTc) was 20.5 nM and 21.4 nM. The IC50 [4, 6] was 6.09 nM, the IC50 [4, 7] was 19.9 nM and the “growth … normalised to no drug” value ([5]; 3.125 nM) was 100 (2×) and 98.2196. For the same molecule, the “growth … normalised to no drug” value ([5]; 6.25 nM) was 101.298 and 95.7154 and 83.7406, the “growth … normalised to no drug” value ([5]; 12.5 nM) was 113.486 and 107.859 and 50.8034 and the “growth … normalised to no drug” value ([5]; 25 nM) was 72.3501 and 87.3666 and 36.7561. For the same molecule, the “growth … normalised to no drug” value ([5]; 50 nM) was 8.286 and 14.406 and 55.7128.

Reference: PMC10831071, “Reaction hijacking inhibition of Plasmodium falciparum asparagine tRNA synthetase” (Nature Communications, 2024)
